Here are results for five molecules from patent US10376515B2, “Analogs of adenosine monophosphate (AMP) as inhibitors of ubiquitin-like modifier-activating enzyme ATG7” (Northwestern University, priority 2016, dated 2019).

“Also recorded” adds a separate entry of the source.

Assay [1] addresses T1, Human recombinant ATG7 protein (Homo sapiens, UniProt O95352).
T1 construct: purchased R&D Systems
T1 sequence (O95352 1-703): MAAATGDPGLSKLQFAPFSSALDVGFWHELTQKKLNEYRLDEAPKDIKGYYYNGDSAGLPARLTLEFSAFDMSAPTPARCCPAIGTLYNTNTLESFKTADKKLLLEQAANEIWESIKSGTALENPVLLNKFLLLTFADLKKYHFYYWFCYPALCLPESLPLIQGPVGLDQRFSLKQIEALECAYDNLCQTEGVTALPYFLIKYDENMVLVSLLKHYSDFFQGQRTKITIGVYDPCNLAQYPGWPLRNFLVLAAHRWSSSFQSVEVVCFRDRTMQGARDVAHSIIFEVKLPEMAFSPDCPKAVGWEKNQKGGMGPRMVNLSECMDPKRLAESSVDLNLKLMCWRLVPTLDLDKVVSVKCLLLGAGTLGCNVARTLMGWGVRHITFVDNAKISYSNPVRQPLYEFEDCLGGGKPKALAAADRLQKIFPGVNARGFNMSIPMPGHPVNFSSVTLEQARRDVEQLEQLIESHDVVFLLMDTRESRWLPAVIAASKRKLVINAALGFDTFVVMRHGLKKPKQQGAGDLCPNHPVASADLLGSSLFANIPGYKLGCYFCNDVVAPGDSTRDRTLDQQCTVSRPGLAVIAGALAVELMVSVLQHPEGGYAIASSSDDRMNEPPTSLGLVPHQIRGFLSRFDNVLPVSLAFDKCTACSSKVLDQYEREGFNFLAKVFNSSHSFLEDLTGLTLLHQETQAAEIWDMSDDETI
The assay can be described thus: Labeling of ATG7 with probes in vitro (click chemistry, in-gel fluorescence). The following applies: 3 hours; for labeling efficiency of ATG7 (intensity of the fluorescent bands): catalytically active ATG7 (0.5 μM), increasing probe concentrations, click chemistry, in-gel fluorescence. It counts as binding. The protocol: Following the synthesis, we incubated probes 1, 2, and 3 with catalytically active ATG7 (0.5 μM) for 3 hours. Then the click chemistry was followed to measure the levels of small molecule labeled ATG7. The intensity of the fluorescent bands was interpreted as the labeling efficiency of the probes.
(§1) Subsequently, increasing concentrations of compounds 4 and 5 were incubated with catalytically active ATG7 (0.5 μM) for 3 hours. […] We also conducted an ATP-competition reaction to test if compounds 4 and 5 utilize the ATP binding site for the covalent labeling. ATG7 was incubated with compound 4 or 5 in the presence or absence of ATP (100 μM) (FIG. 5B).
(§2) General Information. Human recombinant ATG7 protein was purchased from R&D Systems and used without further purification. In-gel fluorescence imaging was performed on a Typhoon 9600 (GE Healthcare).
(§3) Labeling of ATG7 with probes 1, 2, 3, 4, and 5 in vitro. ATG7 (0.4 μM) and TCEP (100 μM) in buffer containing HEPES (25 mM, pH 7.6), NaCl (50 mM), and MgCl2 (4 mM) were treated with increasing concentrations of each probe at room temperature (10 μL total volume) for 2 h. The reaction mixtures were treated with 1 μl of 10% SDS followed by 4 μL of click reaction mixture: CuSO4 (final conc. 1 mM), TBTA (final conc. 100 μM), sodium ascorbate (final conc. 1 mM), and Azide-Fluor-585 (final conc. 100 μM). The reaction mixture was incubated for 30 min at r.t., followed by the addition of 3 μL of 6× Laemmli loading buffer, and resolved by 12% SDS-PAGE. The bottom of the gel was cut to eliminate the excessive amount of Azide-Fluor-585. The acrylamide gel was kept in 50% ddH2O, 40% EtOH and 10% Acetic acid solution until it was subjected to the in-gel scanning fluorescence imaging (Typhoon 9600, GE Healthcare). The proteins in the gel were then visualized with Instant Blue™.

In assay [2] the target is T1, Human recombinant ATG7 protein. The assay can be described thus: ATP-competition reaction for covalent labeling of ATG7. It counts as binding. The following applies: ATP (100 μM) present or absent. The method, then:
as §1, §2
as §3, with “The bottom of the gel was cut to eliminate the excessive amount of Azide-Fluor-585.” left out, “The proteins in the gel were then visualized with Instant Blue™.” left out

In a further assay the test system is A549 cells. The assay can be described thus: In-gel fluorescent detection of probe-labeled proteomes in live A549 cells. It counts as cell-based. The note with it: 10 μM, 2 hours; for cell permeability and labeling of proteins in live cells: rhodamine azide click, in-gel fluorescence. The method, then:
We investigated the labeling of proteins with the developed probes inside of live cells. To this end, A549 cells were treated with 10 μM of compounds 1, 2, 3, and 5 for 2 hours. Then, the lysate was treated with click reaction mixtures containing rhodamine azide.
A549 cells were grown in RPMI medium (Life Technologies) supplemented with 10% fetal bovine serum in 6-well plates. Confluent A549 cells (9.6 cm^2 per condition in 6-well plates) were washed with Dulbecco's Phosphate-Buffered Saline (DPBS, 3 mL) and the growth medium was replaced with RPMI medium containing each probe. After 2 h incubation time at 37° C., cells were washed with DPBS (3 mL). 160 μL of lysis buffer containing Tris HCl (25 mM, pH 7.6), NaCl (150 mM), 1% NP40, 1% sodium deoxycholate, 0.1% SDS, and protease inhibitor cocktail for mammalian cells (Sigma-Aldrich, 1:100 v/v) was added to each well of the 6-well plates, and cells were lysed on ice for 10 min. The gathered lysate was flown through 21G syringe for the complete breakdown. The complete lysis of the cells was monitored using Carl Zeiss Primo Vert inverted microscope. 10 μL of each cell lysate was treated with sodium dodecyl sulfate (final concentration 1%), followed by the incubation with the click chemistry reagents (CuSO4 (final conc. 1 mM), TBTA (final conc. 100 μM), sodium ascorbate (final conc. 1 mM) and Azide-Fluor-585 (final conc. 100 μM) for 30 min. Proteins were resolved by 10% SDS-PAGE, and subjected to in-gel scanning fluorescence imaging to visualize the covalent adducts. Total proteins in the gel were then visualized by staining the gel with Instant Blue™.

Take `C#Cc1cccc(Nc2ncnc3c2ncn3[C@@H]2O[C@H](COS(=O)(=O)C=C)[C@@H](O)[C@H]2O)c1` [Compound 5]: the “labeling efficiency of ATG7 (intensity of the fluorescent bands)” value (“labeling efficiency of ATG7” below) in assay [1] is reported as “stronger intensity of the fluorescent bands than compound 4-treated ATG7; also recorded: much higher labeling efficiency than propargyl alkyne containing probes; also recorded: greater labeling potency than compound 4”. In addition, the “labeling of ATG7 in the presence of ATP compared to ATP free conditions” value in assay [2] is “significantly dropped; also recorded: utilize ATP binding site for the ATG7 labeling”. In the assay on A549 cells, the “off-targets (non-specifically labeled proteins) in live cells” value is “more numbers of off-targets when compared with compound 3; also recorded: strongest off target effects”; the “cell permeability and labeling of proteins in live cells” value (“cell permeability and labeling” for short) was “cell permeable and able to label proteins in live cells”.

For `C#Cc1cccc(Nc2ncnc3c2ncn3[C@@H]2O[C@H](CNS(=O)(=O)C=C)[C@@H](O)[C@H]2O)c1` [Compound 3], the “labeling efficiency of ATG7” value in assay [1] is listed as “higher labeling efficiency than 2; also recorded: much higher labeling efficiency than propargyl alkyne containing probes; also recorded: most potently labels ATG7”. Also, the “cell permeability and labeling” value in the assay on A549 cells is “cell permeable and able to label proteins in live cells”.

On to `C#CCNc1ncnc2c1ncn2[C@@H]1O[C@H](CNS(=O)(=O)C=C)[C@@H](O)[C@H]1O` [Compound 2], for which, in the assay on A549 cells, the “cell permeability and labeling” value is “cell permeable and able to label proteins in live cells”.

As for `C#CCCCCNS(=O)(=O)C=C` [Compound 1], the “labeling efficiency of ATG7” value in assay [1] is given as “inefficient labeling”. Moreover, in assay [1] (probe 10 μM, ATG7 (0.5 μM)), the “labeling of ATG7 at 10 μM concentration” value is “little labeling”. For the same molecule, in the assay on A549 cells, the “cell permeability and labeling” value was “cell permeable and able to label proteins in live cells”.

`C#CCNc1ncnc2c1ncn2[C@@H]1O[C@H](COS(=O)(=O)C=C)[C@@H](O)[C@H]1O` [Compound 4]: in assay [2], the “labeling of ATG7 in the presence of ATP compared to ATP free conditions” value is listed as “significantly dropped; also recorded: utilize ATP binding site for the ATG7 labeling”.
